Article PMC10799709, “Characterization of a New Immunosuppressive and Antimicrobial Peptide, DRS-DA2, Isolated from the Mexican Frog, Pachymedusa dacnicolor” (International Journal of Inflammation, 2024)
Converted amounts (≈) assume the structure as drawn. Peptide text beside a SMILES is read from it.

Key:
C57BL/6 mice = test: Thioglycolate-induced peritoneal inflammation (noninfectious peritonitis); type: in vivo, mouse; conditions: thioglycolate 3% i.p., 15 µg/injection i.p. at 14, 19 and 24 h, flow cytometry
Description: C57BL/6 mice were injected intraperitoneally with 1 mL 3% (wt/vol) thioglycolate (Sigma-Aldrich, l'Ile d'Abeau, France) dissolved in sterile NaCl and then 14, 19, and 24 hours later injected i.p. with DRS-DA2N or DRS-DA2NEQ (15 µg/injection). NaCl was used as a negative control. Twelve hours after the last injection, mice were killed, and 3 mL of cold PBS was injected i.p. to harvest peritoneal cells, which were then stained with anti-mouse Ly6G-PE, anti-mouse NK1.1-PE, anti-mouse CD11b-PerCP, and anti-mouse F4/80-APC (BD Biosciences, Rungis, France). Blood and bone marrow were also collected and stained with the same antibodies. Cells and beads were then counted by FACSCalibur flow cytometry, and data were analyzed with FlowJo. Cells being CD11b^hiLy6G^−NK1.1^− are considered to be monocytes (Mo), CD11b^hiLy6G^−NK1.1^− F4/80^+ macrophages (MΦ), and CD11b^hiLy6G^+NK1.1^− neutrophils (PMN).

human leukocytes = test: Cytotoxic assay on human leukocytes (viability dye, flow cytometry); type: cell-based; conditions: 2 h, various concentrations
Source text: (§1) Human leukocytes were provided by the « Banco de Sangre del Hospital Regional del IMSS » and the Centro Estatal de la Transfusión Sanguínea in Cuernavaca, Morelos, Mexico. Institutional committees approved the acquisition and isolation of human peripheral blood leukocytes. Human leukocytes and erythrocytes were obtained as previously described. Mouse bone marrow cells (MBMCs) and erythrocytes were obtained from C57BL/6 or Balb/c mice. Mouse epithelial cells were isolated from C57Bl/6 mice, and human epithelial cells were recovered from surgery residues. In brief, intestinal tissues were minced and digested in 450-U/mL collagenase I, 125-U/mL collagenase XI, 60-U/mL hyaluronidase, and 60-U/mL DNAse for 1 hour before gradient density centrifugation on Histopaque-1083 (Sigma-Aldrich, St. Louis, MO). […]
(§2) 5.10^5 mouse or human leukocytes or primary epithelial cells, A549 or Jurkat E6-1 cells, were incubated in 100 µl RPMI or DMEM containing 0.5% BSA and […] with the peptides at different concentrations for 2 hours at 37°C, 5% CO2. […] Viability of leukocytes and Jurkat cells was determined by adding a viability dye (eFluor 780) and counted by FacsCanto flow cytometry with a predetermined number of beads (Polybead, Carboxylate Microspheres, Polysciences, Inc., Le Perray-en-Yvelines, France) added to the samples. […] Data were analyzed with FlowJo.

mouse leukocytes = test: Cytotoxic assay on mouse leukocytes (viability dye, flow cytometry); type: cell-based; conditions: 2 h, various concentrations
Source text: as §1, §2

Jurkat E6-1 cells = test: Apoptosis/necrosis assay (annexin V / eFluor 780); type: cell-based; conditions: Jurkat E6-1, 5 µM, 2 hours
Description: Induction of apoptosis or necrosis by the peptides was tested by incubating 5.10^5 Jurkat E6-1 cells in 200 µl RPMI containing 10% FBS and […] with the peptides at 5 µM for 2 hours at 37°C, 5% CO2. A positive control was obtained by exposing the cells to UV light for 10 min (1 mJ/cm^2, Stratagene UV Stratalinker 2400), before incubating them for 4 hours at 37°C, 5% CO2, RPMI 10% FBS. Cells were then washed, centrifuged, resuspended, and incubated 30 min at 4°C in the dark with Viability dye 780 (BioLegend). After washing the cells, Annexin-V-FITC in annexin-binding buffer was added, and the cells were incubated for 15 minutes at room temperature in the dark. The cells were fixed with PFA at a final dilution of 2% before being analyzed by FACSCanto flow cytometry.

[1] = system: Gram-positive and Gram-negative strains; test: Antibacterial properties on a series of strains; type: cell-based
Description: (§3) The minimum inhibitory concentration (MIC) was determined by a liquid test in 96-well microplates as previously described. 100 µL of the sample to be tested was distributed in triplicate to obtain a range of final concentrations from 100 to 0.2 µM in the wells. 90 µL of bacterial suspension (5 × 10^5 CFU/mL for Gram-negative bacteria and 5 × 10^5 CFU/mL for Gram-positive strains in Mueller–Hinton broth) were added to each well [14]. The microtiter plates were incubated at 37°C overnight. The optical density of the wells was measured at […], and the results were interpreted by calculating the percentage of growth in each well according to the formula: % growth = (OD600 well − OD600 T0)/(OD600 of T100 − OD600 T0) ∗ 100, where OD600 T100 = DO600 growth control (bacterial suspension without the test sample, 100% growth), OD600 T0 = OD600 of sterility control (culture medium + […] 10 µL formaldehyde, 0% growth) well, and OD600 = OD600 of the well which was desired to calculate the percentage of growth (+ bacterial suspension test sample). MIC is the minimum concentration of the peptide that inhibits bacterial growth after incubation at 37°C for 20 hours.
The minimum bactericidal concentration (MBC) is defined as the minimum concentration of the peptide killing 99.9% of bacteria after incubation at 37°C for 20 hours. […]

[2] = Circular dichroism, percentage of helicity; type: physicochemical; conditions: POPE: POPG (75 : 25) LUVs, peptide/lipid 1/50, 10 mM Tris pH 7.4
Description: The CD spectra of the peptides were recorded as previously described. Measurements were carried out in 10 mM Tris buffer at pH 7.4 and in the presence of POPC, POPG, and POPG-POPC (25 : 75) LUVs or POPG-POPE (25 : 75) LUVS to mimic E. coli inner membrane composition at a peptide/lipid molar ratio of 1/50. Dichroic spectra were corrected by subtracting the background obtained for each peptide-free solution. An analysis of CD spectra was conducted after smoothing, and conversion to molar ellipticity was calculated as follows: […], where θobs is the observed ellipticity, n is the number of bonds, c is the peptide concentration in mol. L^−1, and l is the path length in cm.

[3] = system: S. epidermidis ST20140436 (MecA+); test: Antibacterial activity on skin multiresistant bacteria; type: cell-based; conditions: Staphylococcus epidermidis
Description: as §3

[4] = system: S. aureus ATCC 700699 (MecA+); test: as above; type: cell-based; conditions: Staphylococcus aureus, ATCC700699
Description: as §3

[5] = system: Acinetobacter johnsonii (carbapenemase); test: as above; type: cell-based
Description: as §3

[6] = system: Propionibacterium acnes (clinical isolate), second listed; test: as above; type: cell-based; conditions: Cutibacterium acnes, second listed (r8)
Description: as §3

[7] = system: Propionibacterium acnes (clinical isolate), first listed; test: as above; type: cell-based; conditions: Cutibacterium acnes, first listed (r7)
Description: as §3

E. coli ATCC8739 = test: Time-kill assay; type: cell-based; conditions: E. coli ATCC8739, peptide at its MIC concentration, 37°C, CFU counting
Description: Time-killing experiments were achieved according to [18, 19] with minor modifications. The peptide's concentration was 1 × MIC and 2 × MIC. At the time points of 15, 30, 45, and 60 min and after homogenization, suspensions were diluted in 10 mM sodium phosphate buffer (pH 6.8) and spread onto MH agar plates. After overnight incubation at room temperature, CFUs were counted.

ANTS/DPX leakage assay = conditions: POPE/POPG (75 : 25) LUVs, 0.5 mM lipid, from Figure 10(c)
Description: The lipids 1-palmitoyl-2-oleoyl-sn-glycero-3-phospho-(1′-rac-glycerol) (POPG) and 1-palmitoyl-2-oleoyl-sn-glycero-3-phosphoethanolamine (POPE) were obtained from Avanti Polar Lipids, Inc., and used without further purification. Desired mixtures of phospholipids were first dried in glass tubes under nitrogen and then maintained under reduced pressure for at least 60 min. Lipid films were subsequently hydrated in PBS to yield a lipid concentration. The resulting dispersions were subjected to 5 freeze-thaw cycles by alternately placing the sample vial in a liquid nitrogen bath and a warm water bath (40°C). […]
The vesicles of POPE/POPG (75/25) at 25 mM concentration were obtained as previously described and suspended in a solution of 12.5 mM ANTS and 45 mM DPX in 10 mM HEPES. […] Final lipid concentration was measured by the method of Rouser.
To measure the leakage of DPX, the vesicles were diluted to a concentration of 0.5 mM lipid. […] ANTS fluorescence was monitored using a fluorimeter (excitation = 350 nm; emission = 530 nm) or a fluorescence plate reader (excitation filter wavelength/bandpass = 340/11; emission 530/25.
Fractional leakage was calculated as (Fsample − Finitial)/(Flysed−Finitial).

CSCC[C@H](NC(=O)[C@H](C)NC(=O)[C@H](C)NC(=O)[C@H](CCCCN)NC(=O)[C@@H](NC(=O)[C@H](CC(C)C)NC(=O)[C@@H](NC(=O)[C@H](CC(N)=O)NC(=O)CNC(=O)[C@@H](N)CCCCN)C(C)C)C(C)C)C(=O)N[C@@H](CC(C)C)C(=O)N[C@H](C(=O)N[C@@H](CCCCN)C(=O)N[C@H](C(=O)N[C@@H](CC(C)C)C(=O)N[C@@H](C)C(=O)N[C@@H](CCCCN)C(=O)N[C@@H](CC(N)=O)C(=O)N[C@@H](CCCCN)C(=O)NCC(=O)N[C@H](C(=O)N[C@@H](CCC(N)=O)C(=O)N[C@@H](CC(N)=O)C(=O)N[C@@H](C)C(=O)N[C@@H](CC(N)=O)C(=O)N[C@@H](C)C(=O)N[C@@H](CC(C)C)C(=O)N[C@H](C(=O)N[C@@H](Cc1c[nH]c2ccccc12)C(=O)O)[C@@H](C)O)C(C)C)C(C)C)[C@@H](C)O [Scr] (H-KGNVLVKAAMLTKVLAKNKGVQNANALTW-OH; N-terminus and C-terminus assumed)
egress of inflammatory cells from the bone marrow and increase in blood after induction of peritonitis (systemic effect) (C57BL/6 mice): conserved
induction of death of leukocyte populations (human leukocytes): did not induce the death
induction of death of leukocyte populations (mouse leukocytes): did not induce the death
cell death (Jurkat E6-1 cells): < 4%
cells alive (A−V−) (Jurkat E6-1 cells): more than 96%
bacterial activity [1]: did not exhibit any bacterial activity
percentage of helicity (CD) [2]: remained unstructured

CC1(C)S[C@@H]2[C@H](NC(=O)[C@H](N)c3ccc(O)cc3)C(=O)N2[C@H]1C(=O)O [amoxicillin]
MIC [3]: > 43.8 µM
MIC [4]: > 43.8 µM

CC(C)(O/N=C(\C(=O)N[C@@H]1C(=O)N2C(C(=O)[O-])=C(C[n+]3ccccc3)CS[C@H]12)c1csc(N)n1)C(=O)O [ceftazidime]
MIC [5]: > 29.3 µM

C[C@H]1c2cccc(O)c2C(=O)C2=C(O)[C@]3(O)C(=O)C(C(N)=O)=C(O)[C@@H](N(C)C)[C@@H]3[C@@H](O)[C@@H]21 [doxycycline]
MIC [6]: 0.27 µM (≈ 0.12 µg/mL)
MIC [7]: 0.13 µM (≈ 0.0578 µg/mL)

omiganan
incubation time after which all the bacteria were killed (E. coli ATCC8739): needed a much longer time to be active
LIC50 (peptide concentration required to induce 50% leakage) (ANTS/DPX leakage assay): No leakage
